Measurements published in ChEMBL document CHEMBL4359931, “Synthesis, biological evaluation and molecular docking studies of new amides of 4-bromothiocolchicine as anticancer agents” (Bioorg Med Chem, 2019).
The source made the active and inactive calls. The rule behind the calls is not given here.

Tests used:
[1] = Selectivity index, ratio of IC50 of mouse BALB/3T3 cells to IC50 of human LoVo cells; type: toxicity; details: BALB/3T3 cells versus LoVo cells, read-out: Ratio IC50
[2] = Selectivity index, ratio of IC50 of mouse BALB/3T3 cells to IC50 of human A549 cells
[3] = Selectivity index, ratio of IC50 of mouse BALB/3T3 cells to IC50 of human MCF7 cells; type: toxicity; details: BALB/3T3 cells versus MCF7 cells, read-out: Ratio IC50
[4] = Selectivity index, ratio of IC50 of mouse BALB/3T3 cells to IC50 of human ALL5 cells
BALB/3T3 = experiment: Antiproliferative activity against mouse BALB/3T3 cells assessed as reduction in cell viability incubated for 120 hrs by MTT assay; type: cell-based; details: BALB/3T3, 120 h
MCF7 [5] = experiment: Antiproliferative activity against human MCF7 cells assessed as reduction in cell viability incubated for 120 hrs by MTT assay; type: functional, cell-based; details: MCF7, 120 h
[6] = Antiproliferative activity against human ALL5 cells assessed as reduction in cell viability incubated for 120 hrs by MTT assay; type: functional, cell-based; details: ALL5, 120 h
[7] = Resistance index, ratio of IC50 of human LoVo/DX cells to IC50 of human LoVo cells; type: functional
[8] = Selectivity index, ratio of IC50 of mouse BALB/3T3 cells to IC50 of human LoVo/DX cells; type: toxicity; details: BALB/3T3 cells versus LoVo/DX cells, read-out: Ratio IC50
LoVo = experiment: Antiproliferative activity against human LoVo cells assessed as reduction in cell viability incubated for 120 hrs by MTT assay; type: functional, cell-based
A549 = experiment: Antiproliferative activity against human A549 cells assessed as reduction in cell viability incubated for 120 hrs by MTT assay; type: functional, cell-based; details: A549, 120 h
[9] = Antiproliferative activity against human LoVo/DX cells assessed as reduction in cell viability incubated for 120 hrs by MTT assay; type: functional, cell-based
[10] = Cell cycle arrest in human ALL5 cells assessed as accumulation in S phase at 5 times of antiproliferative IC50 incubated for 72 hrs by propidium iodide based flow cytometry (reference value: 13.5 %); type: functional
[11] = Cell cycle arrest in human ALL5 cells assessed as accumulation in subG1 phase at 5 times of antiproliferative IC50 incubated for 72 hrs by propidium iodide based flow cytometry (reference value: 15.5 %); type: functional
[12] = Cell cycle arrest in human ALL5 cells assessed as accumulation in subG1 phase at 5 times of antiproliferative IC50 incubated for 48 hrs by propidium iodide based flow cytometry (reference value: 11 %); type: functional
[13] = Cell cycle arrest in human ALL5 cells assessed as accumulation in G2 phase at 5 times of antiproliferative IC50 incubated for 72 hrs by propidium iodide based flow cytometry (reference value: 11.3 %); type: functional
MCF7 [14] = experiment: Cell cycle arrest in human MCF7 cells assessed as accumulation in subG1 phase at 5 times of antiproliferative IC50 incubated for 24 hrs by propidium iodide based flow cytometry (reference value: 7.79 %); type: functional
MCF7 [15] = experiment: Cell cycle arrest in human MCF7 cells assessed as accumulation in G1 phase at 5 times of antiproliferative IC50 incubated for 72 hrs by propidium iodide based flow cytometry (reference value: 58 %); type: functional
[16] = Cell cycle arrest in human ALL5 cells assessed as accumulation in G1 phase at 5 times of antiproliferative IC50 incubated for 24 hrs by propidium iodide based flow cytometry (reference value: 68.1 %); type: functional
[17] = Cell cycle arrest in human ALL5 cells assessed as accumulation in G2 phase at 5 times of antiproliferative IC50 incubated for 48 hrs by propidium iodide based flow cytometry (reference value: 11.2 %); type: functional
[18] = Cell cycle arrest in human ALL5 cells assessed as accumulation in G1 phase at 5 times of antiproliferative IC50 incubated for 48 hrs by propidium iodide based flow cytometry (reference value: 67.4 %); type: functional
MCF7 [19] = experiment: Cell cycle arrest in human MCF7 cells assessed as accumulation in G2 phase at 5 times of antiproliferative IC50 incubated for 72 hrs by propidium iodide based flow cytometry (reference value: 18.6 %); type: functional
MCF7 [20] = experiment: Cell cycle arrest in human MCF7 cells assessed as accumulation in S phase at 5 times of antiproliferative IC50 incubated for 48 hrs by propidium iodide based flow cytometry (reference value: 34 %); type: functional
[21] = Cell cycle arrest in human ALL5 cells assessed as accumulation in subG1 phase at 5 times of antiproliferative IC50 incubated for 24 hrs by propidium iodide based flow cytometry (reference value: 10.5 %); type: functional
Homo sapiens [22] = species: Homo sapiens; experiment: Induction of cell cycle arrest in human ALL5 cells assessed as increase in 4 N DNA at 5 times of antiproliferative IC50 incubated for 24 hrs by propidium iodide based flow cytometry; type: functional
[23] = Cell cycle arrest in human ALL5 cells assessed as accumulation in S phase at 5 times of antiproliferative IC50 incubated for 24 hrs by propidium iodide based flow cytometry (reference value: […]); type: functional
MCF7 [24] = experiment: Cell cycle arrest in human MCF7 cells assessed as accumulation in subG1 phase at 5 times of antiproliferative IC50 incubated for 48 hrs by propidium iodide based flow cytometry (reference value: 9.19 %); type: functional
[25] = Cell cycle arrest in human ALL5 cells assessed as accumulation in G2 phase at 5 times of antiproliferative IC50 incubated for 24 hrs by propidium iodide based flow cytometry (reference value: 10.6 %); type: functional
Homo sapiens [26] = species: Homo sapiens; experiment: Induction of cell death in human ALL5 cells assessed as decrease in 4 N DNA at 5 times of antiproliferative IC50 incubated for 72 hrs by propidium iodide based flow cytometry; type: functional
MCF7 [27] = experiment: Cell cycle arrest in human MCF7 cells assessed as accumulation in S phase at 5 times of antiproliferative IC50 incubated for 72 hrs by propidium iodide based flow cytometry (reference value: 19.8 %); type: functional
MCF7 [28] = experiment: Cell cycle arrest in human MCF7 cells assessed as accumulation in G1 phase at 5 times of antiproliferative IC50 incubated for 24 hrs by propidium iodide based flow cytometry (reference value: 49.9 %); type: functional
MCF7 [29] = experiment: Cell cycle arrest in human MCF7 cells assessed as accumulation in S phase at 5 times of antiproliferative IC50 incubated for 24 hrs by propidium iodide based flow cytometry (reference value: 19.9 %); type: functional
[30] = Cell cycle arrest in human ALL5 cells assessed as accumulation in S phase at 5 times of antiproliferative IC50 incubated for 48 hrs by propidium iodide based flow cytometry (reference value: 10.3 %); type: functional
MCF7 [31] = experiment: Cell cycle arrest in human MCF7 cells assessed as accumulation in G2 phase at 5 times of antiproliferative IC50 incubated for 48 hrs by propidium iodide based flow cytometry (reference value: 16 %); type: functional
MCF7 [32] = experiment: Cell cycle arrest in human MCF7 cells assessed as accumulation in G1 phase at 5 times of antiproliferative IC50 incubated for 48 hrs by propidium iodide based flow cytometry (reference value: 40.8 %); type: functional
MCF7 [33] = experiment: Cell cycle arrest in human MCF7 cells assessed as accumulation in subG1 phase at 5 times of antiproliferative IC50 incubated for 72 hrs by propidium iodide based flow cytometry (reference value: 3.59 %); type: functional
MCF7 [34] = experiment: Cell cycle arrest in human MCF7 cells assessed as accumulation in G2 phase at 5 times of antiproliferative IC50 incubated for 24 hrs by propidium iodide based flow cytometry (reference value: 22.4 %); type: functional
[35] = Cell cycle arrest in human ALL5 cells assessed as accumulation in G1 phase at 5 times of antiproliferative IC50 incubated for 72 hrs by propidium iodide based flow cytometry (reference value: 59.7 %); type: functional
Homo sapiens [36] = species: Homo sapiens; experiment: Induction of cell cycle arrest in human ALL5 cells assessed as increase in 4 N DNA at 5 times of antiproliferative IC50 incubated for 48 hrs by propidium iodide based flow cytometry; type: functional

Compound | IC50 (MCF7 [5]) [nM] | IC50 (LoVo) [nM] | IC50 (A549) [nM] | selectivity ratio [1] | Ratio IC50 [2] | selectivity ratio [3] | Ratio IC50 [4] | IC50 (BALB/3T3) [nM] | IC50 [6] [nM] | Ratio IC50 [7] | selectivity ratio [8] | IC50 [9] [nM] | Activity [10] [%] | Activity [11] [%] | Activity [12] [%] | Activity [13] [%] | Activity (MCF7 [14]) [%] | Activity (MCF7 [15]) [%] | Activity (Homo sapiens [22]) | Activity (Homo sapiens [26]) | further results
COc1c(Br)c2c(c(OC)c1OC)-c1ccc(SC)c(=O)cc1[C@@H](NC(C)=O)CC2 | 14.8 | 13.6 | 10.1 | 7.6 | 10.2 | 7 | 19.1 | 103 | 5.4 | 9.6 | 0.8 | 135 | 24.2 | 37.2 | 30.5 | 9.83 | 7.93 | 15.5 | Active | Active | Activity [16]: 53.2%; Activity [17]: 16.6%; Activity [18]: 33.4%; Activity (MCF7 [19]): 64.5%; Activity (MCF7 [20]): 7.31%; Activity [21]: 14.3%; Activity [23]: 14.8%; Activity (MCF7 [24]): 12%; Activity [25]: 17.7%; Activity (MCF7 [27]): 6.88%; Activity (MCF7 [28]): 13%; Activity (MCF7 [29]): 6.62%; Activity [30]: 19.4%; Activity (MCF7 [31]): 66%; Activity (MCF7 [32]): 14.6%; Activity (MCF7 [33]): 13.1%; Activity (MCF7 [34]): 72.4%; Activity [35]: 28.8%
COc1c(Br)c2c(c(OC)c1OC)-c1ccc(SC)c(=O)cc1[C@@H](N)CC2 | 178 | 125 | 115 | 10.1 | 11 | 7.1 | 13.8 | 1260 | 91.4 | 5.6 | 1.8 | 700 |  |  |  |  |  |  | Active | Active | Activity (Homo sapiens [36]): Active
CCCCCCCCCC(=O)N[C@H]1CCc2c(Br)c(OC)c(OC)c(OC)c2-c2ccc(SC)c(=O)cc21 | 957 | 482 | 881 | 0.2 | 0.1 | 0.1 | 0.5 | 98.4 | 196 | 1.8 | 0.1 | 867 |  |  |  |  |  |  |  |  | 

The next lines start with results.

IC50 (MCF7 [5]) [nM] | IC50 (LoVo) [nM] | IC50 (A549) [nM] | Compound | selectivity ratio [1] | Ratio IC50 [2] | selectivity ratio [3] | Ratio IC50 [4] | IC50 (BALB/3T3) [nM] | IC50 [6] [nM] | Ratio IC50 [7] | selectivity ratio [8] | IC50 [9] [nM] | Activity [10] [%] | Activity [11] [%] | Activity [12] [%] | Activity [13] [%] | Activity (MCF7 [14]) [%] | Activity (MCF7 [15]) [%] | Activity (Homo sapiens [22]) | Activity (Homo sapiens [26]) | further results
97.3 | 53.8 | 99.1 | CCN(CC)C(=O)N[C@H]1CCc2c(Br)c(OC)c(OC)c(OC)c2-c2ccc(SC)c(=O)cc21 | 1.5 | 0.8 | 0.8 | 1.5 | 80.4 | 55.3 | 11.6 | 0.1 | 621 |  |  |  |  |  |  |  |  | 
11.4 | 6.6 | 9.6 | COc1c(Br)c2c(c(OC)c1OC)-c1ccc(SC)c(=O)cc1[C@@H](NC(=O)c1ccccc1)CC2 | 2.6 | 1.8 | 1.5 | 3 | 17.4 | 5.8 | 7.3 | 0.4 | 47.9 | 19.7 | 50.6 | 24.7 | 7.51 | 6.17 | 13 | Active | Active | Activity [16]: 52%; Activity [17]: 25.4%; Activity [18]: 33.8%; Activity (MCF7 [19]): 61.6%; Activity (MCF7 [20]): 7.39%; Activity [21]: 16.5%; Activity [23]: 14.7%; Activity (MCF7 [24]): 10%; Activity [25]: 16.9%; Activity (MCF7 [27]): 9.81%; Activity (MCF7 [28]): 11%; Activity (MCF7 [29]): 7.85%; Activity [30]: 16%; Activity (MCF7 [31]): 68.3%; Activity (MCF7 [32]): 14.3%; Activity (MCF7 [33]): 15.6%; Activity (MCF7 [34]): 75%; Activity [35]: 22.1%
